Earlier results in US12629369B2, “Pharmaceutical compositions of nilotinib” (AZURITY PHARMACEUTICALS, INC., priority 2019, dated 2026).
Where a name gives a salt, the structure may show the parent alone.

Tests used:
[1] = taken with or after meals, particularly high fat meals (Castagnetti et al 2008)

Structure (SMILES): Cc1cn(-c2cc(NC(=O)c3ccc(C)c(Nc4nccc(-c5cccnc5)n4)c3)cc(C(F)(F)F)c2)cn1 [Nilotinib hydrochloride]
- water solubility: poorly water soluble

Structure (SMILES): Cc1cn(-c2cc(NC(=O)c3ccc(C)c(Nc4nccc(-c5cccnc5)n4)c3)cc(C(F)(F)F)c2)cn1 [Nilotinib, 4-methyl-N-[3-(4-methyl-1H-imidazol-1-yl)-5-(trifluoromethyl)phenyl]-3-[[4-(3-pyridinyl)-2-pyrimidinyl]amino]-benzamide]
- increase of extent of absorption (area under the plasma profile curve) [1]: 82%
- increase of rate of absorption (Cmax) [1]: 112%
- solubility in aqueous solutions (25° C., pH 4.5 and higher): practically insoluble
